# Patent US20050148523A1, “Method of treating HIV infection in atazanavir-resistant patients using a combination of atazanavir and another protease inhibitor” (priority 2003, published 2005)
# Read-outs that look alike come from different tables or passages of the source.
# How the values were obtained:
# [1] = tested on: HIV-1 in treatment naive patients on ATV containing regimens; assay: Pooled resistance analysis of studies AI424-007/041, 008/044 and 034; format: in vivo, human; conditions: patients with I50L, N=10
# Excerpt: Study Population. Viral samples (baseline and on-treatment, where available) were obtained from patients who experienced virologic failure while enrolled in studies AI424-007/041 [12] (ATV+d4T and ddI), AI424-008/044 [13, 14] (ATV+d4T and 3TC) and AI424-034 [9] (ATV or EFV in combination with ZDV and 3TC). […] In general, virologic failure specimens were selected for further resistance evaluation only if they contained >1,000 copies/mL HIV-1 RNA and there was no indication that the specimen came from a patient at a time of transient non-adherence to study drug(s). […] For non-responders, samples from week 16 (or 24) were tested. Drug adherence was determined from pill counts of returned study medications at each scheduled visit.
# ATV resistance was defined as ≧2-fold decrease in ATV susceptibility from baseline, a Fold Change (FC) of ≧2.5 (relative to the Nl4-3 reference strain), or evidence of an isoleucine (Ile) to leucine (Leu) change at amino acid residue 50 (I50L). Resistance levels for NFV and EFV were also defined as a FC reaching 2.5.
# [2] = tested on: recombinant HIV-1 viruses (NL4-3, RF, LAI) in MT-2 cells; assay: MT-2 cell susceptibility assay of recombinant viruses; format: cell-based
# Method: Cells and Viruses. MT-2 cells, HIV-1 RF, HIV1-LAI, and the HIV-1 NL4-3 proviral clones were obtained through the AIDS Research and Reference Reagent Program, National Institutes of Health. MT-2 cells were cultured in RPMI 1640 medium supplemented with 10% fetal bovine serum, 2 mM L-glutamine, and 10 mM Hepes buffer. HIV-1 viruses were generated by transient transfection of the proviral DNA into Human Embryonic Kidney 293 cells using Lipofectamine reagents (Gibco BRL). The viruses were harvested 72 hr post-transfection, amplified in MT-2 cells, and titered in the same cells using a virus yield assay.
# Recombinant HIV-1 Variants and Chimeric NL4-3 Proviral Clones. HIV-1 strains with defined substitutions in the protease gene were generated by QuikChange® site-directed mutagenesis as recommended by the manufacturer (Stratagene). Recombinant NL4-3 and LAI proviral clones containing the wild-type and mutant protease genes from RF and clinical isolates were constructed by replacing the SseI/ApaI fragment of pNL4-3 with the appropriate SseI/ApaI protease fragments.
# Recombinant viruses (generated separately from those made for PhenoSense assays) were tested in an MT-2 cell susceptibility assay at Bristol Myers Squibb. MT-2 cells were infected with recombinant viruses at a multiplicity of infection (MOI) of 0.005 50% tissue culture infective doses (TCID50)/cell followed by incubation in the presence or absence of serially diluted protease inhibitors for 4 to 7 days. Virus yields were quantified using a RT assay as previously described. The results from at least four independent experiments were used to calculate the EC50.
compound,measurement,setting,value
"COC(=O)N[C@H](C(=O)N[C@@H](Cc1ccccc1)[C@@H](O)CN(Cc1ccc(-c2ccccn2)cc1)NC(=O)[C@@H](NC(=O)OC)C(C)(C)C)C(C)(C)C [ATV, atazanavir]",mean time to virologic failure,[1],50 weeks
same,EC50,"[2]; Human immunodeficiency virus 1, NL43, MT2, LAI A71V, read-out: ATV phenotype (value before parenthesis, EC50)",3.7 ± 0.9 nM
same,EC50,"[2]; Human immunodeficiency virus 1, NL43, MT2, LAI Control, read-out: ATV phenotype (value before parenthesis, EC50)",1.5 ± 0.3 nM
same,EC50,"[2]; Human immunodeficiency virus 1, NL43, MT2, LAI I50L, read-out: ATV phenotype (value before parenthesis, EC50)",8.2 ± 3.4 nM
same,EC50,"[2]; Human immunodeficiency virus 1, NL43, MT2, NL4-3 020: I50L + M46I, L63P, H69Q, V77I, I93L, read-out: ATV phenotype (value before parenthesis, EC50)",1.9 ± 0.5 nM
same,EC50,"[2]; Human immunodeficiency virus 1, NL43, MT2, NL4-3 100A: I50L + L63P, K70R, A71V, N88S, read-out: ATV phenotype (value before parenthesis, EC50)",22.9 ± 6.4 nM
same,EC50,"[2]; Human immunodeficiency virus 1, NL43, MT2, NL4-3 100B: I50L + L63P, K70R, A71V, G73S, read-out: ATV phenotype (value before parenthesis, EC50)",27.8 ± 2.8 nM
same,EC50,"[2]; Human immunodeficiency virus 1, NL43, MT2, NL4-3 296: I50L + K45R, L63P, A71V, G73S, V77I, I93L, read-out: ATV phenotype (value before parenthesis, EC50)",7.1 ± 1.6 nM
same,EC50,"[2]; Human immunodeficiency virus 1, NL43, MT2, NL4-3 347: I50L + I13V, E35D, M36I, M46L, L63P, A71V, V82A, read-out: ATV phenotype (value before parenthesis, EC50)",12.1 ± 1.4 nM
same,EC50,"[2]; Human immunodeficiency virus 1, NL43, MT2, NL4-3 372: I50L + L10I, L63P, G73S, I93L, read-out: ATV phenotype (value before parenthesis, EC50)",9.8 ± 0.7 nM
same,EC50,"[2]; Human immunodeficiency virus 1, NL43, MT2, NL4-3 398: I50L + E35D, M36L, N37S, R41K, R57K, I62V, L63P, I93L, read-out: ATV phenotype (value before parenthesis, EC50)",9 ± 1.5 nM
same,EC50,"[2]; Human immunodeficiency virus 1, NL43, MT2, NL4-3 450: I50L + L19I, R41K, A71V, T74S, read-out: ATV phenotype (value before parenthesis, EC50)",4.4 ± 2.9 nM
same,EC50,"[2]; Human immunodeficiency virus 1, NL43, MT2, NL4-3 A71V, read-out: ATV phenotype (value before parenthesis, EC50)",2.4 ± 0.04 nM
same,EC50,"[2]; Human immunodeficiency virus 1, NL43, MT2, NL4-3 Control (first group), read-out: ATV phenotype (value before parenthesis, EC50)",0.8 ± 0.3 nM
same,EC50,"[2]; Human immunodeficiency virus 1, NL43, MT2, NL4-3 I50L + A71V, read-out: ATV phenotype (value before parenthesis, EC50)",8.6 ± 1.9 nM
same,EC50,"[2]; Human immunodeficiency virus 1, NL43, MT2, NL4-3 I50L, read-out: ATV phenotype (value before parenthesis, EC50)",3.1 ± 1.6 nM
same,EC50,"[2]; Human immunodeficiency virus 1, NL43, MT2, RF A71V, read-out: ATV phenotype (value before parenthesis, EC50)",0.6 ± 0.2 nM
same,EC50,"[2]; Human immunodeficiency virus 1, NL43, MT2, RF Control, read-out: ATV phenotype (value before parenthesis, EC50)",0.7 ± 0.1 nM
same,EC50,"[2]; Human immunodeficiency virus 1, NL43, MT2, RF I50L + A71V, read-out: ATV phenotype (value before parenthesis, EC50)",4 ± 0.3 nM
same,EC50,"[2]; Human immunodeficiency virus 1, NL43, MT2, RF I50L, read-out: ATV phenotype (value before parenthesis, EC50)",2.2 ± 1.8 nM
same,EC50,"[2]; Human immunodeficiency virus 1, NL43, MT2, read-out: ATV phenotype (value before parenthesis, EC50), LAI 150L + A71V",15.1 ± 4.7 nM
same,EC50,"[2]; Human immunodeficiency virus 1, NL43, MT2, read-out: ATV phenotype (value before parenthesis, EC50), NL4-3 Control (second group, site-directed mutants)",1.5 ± 0.1 nM
same,ATV (Fold Change),[2]; LAI 150L + A71V,10 Fold Change
same,ATV (Fold Change),[2]; LAI A71V,2.4 Fold Change
same,ATV (Fold Change),[2]; LAI I50L,5.4 Fold Change
same,ATV (Fold Change),"[2]; NL4-3 020: I50L + M46I, L63P, H69Q, V77I, I93L",2.5 Fold Change
same,ATV (Fold Change),"[2]; NL4-3 100A: I50L + L63P, K70R, A71V, N88S",31 Fold Change
same,ATV (Fold Change),"[2]; NL4-3 100B: I50L + L63P, K70R, A71V, G73S",37 Fold Change
same,ATV (Fold Change),"[2]; NL4-3 296: I50L + K45R, L63P, A71V, G73S, V77I, I93L",9.5 Fold Change
same,ATV (Fold Change),"[2]; NL4-3 347: I50L + I13V, E35D, M36I, M46L, L63P, A71V, V82A",16 Fold Change
same,ATV (Fold Change),"[2]; NL4-3 372: I50L + L10I, L63P, G73S, I93L",13 Fold Change
same,ATV (Fold Change),"[2]; NL4-3 398: I50L + E35D, M36L, N37S, R41K, R57K, I62V, L63P, I93L",12 Fold Change
same,ATV (Fold Change),"[2]; NL4-3 450: I50L + L19I, R41K, A71V, T74S",5.9 Fold Change
same,ATV (Fold Change),[2]; NL4-3 A71V,1.6 Fold Change
same,ATV (Fold Change),[2]; NL4-3 I50L,2.1 Fold Change
same,ATV (Fold Change),[2]; NL4-3 I50L + A71V,5.9 Fold Change
same,ATV (Fold Change),[2]; RF A71V,0.9 Fold Change
same,ATV (Fold Change),[2]; RF I50L,3 Fold Change
same,ATV (Fold Change),[2]; RF I50L + A71V,5.7 Fold Change
same,decrease in susceptibility,[2]; {},2.1-5.4 fold
